According to ChEMBL document CHEMBL4699440, “Comprehensive review on the anti-bacterial activity of 1,2,3-triazole hybrids” (Eur J Med Chem, 2019):
Converted amounts (≈) assume the structure as drawn. Numbered stars: 1 amine (or outer) side, 2 acyl side, 3 side chain; on linkers, the order of the positions; unused ones are H or OH. Square brackets hold non-standard residues; d marks the D form. Peptide text beside a SMILES is read from it. * marks the point of attachment. X1 = CC(C)(C(=O)c1ccc(C(F)(F)F)cc1)C(=O)*; βPro(3R) = O=C([C@@H]1CCN([*:1])C1)[*:2]; Phe(ol) = N[C@H](CO)Cc1ccccc1; Aib = CC(C)(N)C(=O)O

Experiments:
[1] = test system: Staphylococcus epidermidis; assay: Antibacterial activity against methicillin-resistant Staphylococcus epidermidis 13-3; type: functional
Staphylococcus aureus [2] = assay: Antibacterial activity against methicillin-resistant Staphylococcus aureus ATCC 33591; type: functional
Proteus mirabilis [3] = assay: Antibacterial activity against Proteus mirabilis 13-1; type: functional
[4] = test system: Staphylococcus epidermidis; assay: Antibacterial activity against Staphylococcus epidermidis MTCC 6880 by serial dilution method; type: functional
Escherichia coli [5] = assay: Antibacterial activity against Escherichia coli RCMB 010052 by broth dilution method; type: functional
Bacillus cereus [6] = assay: Antibacterial activity against Bacillus cereus by agar dilution method; type: functional
Klebsiella pneumoniae [7] = assay: Antibacterial activity against Klebsiella pneumoniae 7; type: functional
Klebsiella pneumoniae [8] = assay: Antibacterial activity against Klebsiella pneumoniae ATCC 700603; type: functional
Escherichia coli [9] = assay: Antibacterial activity against Escherichia coli MTCC 1652 incubated for […] by two-fold serial dilution method; type: functional; details: time 24 hrs
Staphylococcus aureus [10] = assay: Antibacterial activity against Staphylococcus aureus by agar dilution method; type: functional
Streptococcus pyogenes = assay: Antibacterial activity against Streptococcus pyogenes ATCC 35552 incubated for 24 hrs by tube dilution method; type: functional
Escherichia coli [11] = assay: Antibacterial activity against Escherichia coli ATCC 25922 incubated for 24 hrs by tube dilution method; type: functional
Bacillus subtilis [12] = assay: Antibacterial activity against Bacillus subtilis MTCC 441 incubated for 24 hrs by microdilution method; type: functional
Bacillus subtilis [13] = assay: Antibacterial activity against Bacillus subtilis RCMB 010067 by broth dilution method; type: functional
Morganella morganii = assay: Antibacterial activity against Morganella morganii ATCC 25830; type: functional
Klebsiella pneumoniae [14] = assay: Antibacterial activity against Klebsiella pneumoniae MTCC 618 incubated for 24 hrs by microdilution method; type: functional
Staphylococcus aureus [15] = assay: Antibacterial activity against Staphylococcus aureus MTCC 96 incubated for 24 hrs by microdilution method; type: functional
Pseudomonas aeruginosa [16] = assay: Antibacterial activity against Pseudomonas aeruginosa ATCC 27853 incubated for 24 hrs by microdilution method; type: functional
[17] = test system: Stenotrophomonas maltophilia; assay: Antibacterial activity against Stenotrophomonas maltophilia ATCC 13636; type: functional
Pseudomonas aeruginosa [18] = assay: Antibacterial activity against Pseudomonas aeruginosa 12 incubated for 20 hrs by agar dilution method; type: functional
[19] = test system: Staphylococcus epidermidis; assay: Antibacterial activity against methicillin-sensitive Staphylococcus epidermidis ATCC 12228; type: functional
Providencia rettgeri = assay: Antibacterial activity against Providencia rettgeri ATCC 31052; type: functional
Proteus vulgaris = assay: Antibacterial activity against Proteus vulgaris ATCC 29905; type: functional
Pseudomonas aeruginosa [20] = assay: Antibacterial activity against Pseudomonas aeruginosa ATCC 12454 incubated for 24 hrs by tube dilution method; type: functional
Pseudomonas aeruginosa [21] = assay: Antibacterial activity against Pseudomonas aeruginosa MTCC 741 incubated for 24 hrs by microdilution method; type: functional
Bacillus subtilis [22] = assay: Antibacterial activity against Bacillus subtilis MTCC 441 incubated for 24 hrs by two-fold serial dilution method; type: functional
Pseudomonas aeruginosa [23] = assay: Antibacterial activity against Pseudomonas aeruginosa RCMB 010043 by broth dilution method; type: functional
Klebsiella aerogenes = assay: Antibacterial activity against Enterobacter aerogenes ATCC 13048; type: functional
[24] = test system: Staphylococcus epidermidis; assay: Antibacterial activity against Staphylococcus epidermidis incubated for 24 hrs by microdilution method; type: functional
Staphylococcus aureus [25] = assay: Antibacterial activity against Staphylococcus aureus 209P JC1 incubated for 20 hrs by agar dilution method; type: functional
Klebsiella pneumoniae [26] = assay: Antibacterial activity against Klebsiella pneumoniae ATCC 15380 incubated for 24 hrs by tube dilution method; type: functional
Staphylococcus aureus [27] = assay: Antibacterial activity against methicillin-sensitive Staphylococcus aureus ATCC 29213; type: functional
Pseudomonas aeruginosa [28] = assay: Antibacterial activity against Pseudomonas aeruginosa ATCC 27853; type: functional
Enterococcus faecalis = assay: Antibacterial activity against Enterococcus faecalis ATCC 29212 incubated for 24 hrs by microdilution method; type: functional
Staphylococcus aureus [29] = assay: Antibacterial activity against Staphylococcus aureus RCMB 010025 by broth dilution method; type: functional
Pseudomonas aeruginosa [30] = assay: Antibacterial activity against Pseudomonas aeruginosa MTCC 424 incubated for 24 hrs by two-fold serial dilution method; type: functional
[31] = test system: Acinetobacter calcoaceticus; assay: Antibacterial activity against Acinetobacter calcoaceticus ATCC 19606; type: functional
Escherichia coli [32] = assay: Antibacterial activity against Escherichia coli MTCC […] by serial dilution method; type: functional
Bacillus cereus [33] = assay: Antibacterial activity against Bacillus cereus ATCC 10876 incubated for 24 hrs by microdilution method; type: functional
Bacillus cereus [34] = assay: Antibacterial activity against Bacillus cereus MTCC 430 incubated for 24 hrs by macrodilution tube method; type: functional
Enterococcus faecium [35] = assay: Antibacterial activity against Enterococcus faecium ATCC 700221; type: functional
Staphylococcus aureus [36] = assay: Antibacterial activity against Staphylococcus aureus ATCC 25923 incubated for 24 hrs by tube dilution method; type: functional
Staphylococcus aureus [37] = assay: Antibacterial activity against Staphylococcus aureus ATCC 25923 incubated for 24 hrs by microdilution method; type: functional
Pseudomonas aeruginosa [38] = assay: Antibacterial activity against Pseudomonas aeruginosa MTCC 424 by serial dilution method; type: functional
Serratia marcescens = assay: Antibacterial activity against Serratia marcescens ATCC 21074; type: functional
Citrobacter freundii = assay: Antibacterial activity against Citrobacter freundii ATCC 43864; type: functional
Bacillus subtilis [39] = assay: Antibacterial activity against Bacillus subtilis MTCC 441 by serial dilution method; type: functional
Klebsiella pneumoniae [40] = assay: Antibacterial activity against Klebsiella pneumonia RCMB 010058 by broth dilution method; type: functional
Proteus mirabilis [41] = assay: Antibacterial activity against Proteus mirabilis ATCC 35659 incubated for 24 hrs by microdilution method; type: functional
Escherichia coli [42] = assay: Antibacterial activity against Escherichia coli NIHJ JC2 incubated for 20 hrs by agar dilution method; type: functional
Streptococcus pneumoniae = assay: Antibacterial activity against Streptococcus pneumoniae RCMB 010010 by broth dilution method; type: functional
Enterococcus faecium [43] = assay: Antibacterial activity against Enterococcus faecium 13-7; type: functional
[44] = Cytotoxicity against human KB cells; type: cell-based; details: human, KB cells; read-out: MIC

Compound: O=C(O)c1cn(C2CC2)c2cc(N3CCNCC3)c(F)cc2c1=O [CIPROFLOXACIN]
- MIC [1]: 0.03 µg/mL (≈ 0.0905 µM)
- MIC (Staphylococcus aureus [2]): 0.03 µg/mL (≈ 0.0905 µM)
- MIC (Proteus mirabilis [3]): ≤ 0.03 µg/mL
- MIC [4]: 4.7 µM (≈ 1.56 µg/mL)
- MIC (Escherichia coli [5]): ≥ 5 µg/mL
- MIC (Bacillus cereus [6]): 2 µg/mL (≈ 6.04 µM)
- MIC (Klebsiella pneumoniae [7]): ≤ 0.03 µg/mL
- MIC (Klebsiella pneumoniae [8]): 0.03 µg/mL (≈ 0.0905 µM)
- MIC (Escherichia coli [9]): 37.7 µM (≈ 12.5 µg/mL)
- MIC (Staphylococcus aureus [10]): 2 µg/mL (≈ 6.04 µM)
- MIC (Streptococcus pyogenes): 5.5 µg/mL (≈ 16.6 µM)
- MIC (Escherichia coli [11]): 5.5 µg/mL (≈ 16.6 µM)
- MIC (Bacillus subtilis [12]): 0.39 µg/mL (≈ 1.18 µM)
- MIC (Bacillus subtilis [13]): ≥ 5 µg/mL
- MIC (Morganella morganii): ≤ 0.03 µg/mL
- MIC (Klebsiella pneumoniae [14]): 0.39 µg/mL (≈ 1.18 µM)
- MIC (Staphylococcus aureus [15]): 0.39 µg/mL (≈ 1.18 µM)
- MIC (Pseudomonas aeruginosa [16]): 1 µg/mL (≈ 3.02 µM)
- MIC [17]: 0.03 µg/mL (≈ 0.0905 µM)
- MIC (Pseudomonas aeruginosa [18]): 0.0063 µg/mL (≈ 0.019 µM)
- MIC [19]: 0.03 µg/mL (≈ 0.0905 µM)
- MIC (Providencia rettgeri): ≤ 0.03 µg/mL
- MIC (Proteus vulgaris): ≤ 0.03 µg/mL
- MIC (Pseudomonas aeruginosa [20]): 5.5 µg/mL (≈ 16.6 µM)
- MIC (Pseudomonas aeruginosa [21]): 0.39 µg/mL (≈ 1.18 µM)
- MIC (Bacillus subtilis [22]): 0.0377 µg/mL (≈ 0.114 µM)
- MIC (Pseudomonas aeruginosa [23]): ≥ 5 µg/mL
- MIC (Klebsiella aerogenes): ≤ 0.03 µg/mL
- MIC [24]: 0.39 µg/mL (≈ 1.18 µM)
- MIC (Staphylococcus aureus [25]): 0.0063 µg/mL (≈ 0.019 µM)
- MIC (Klebsiella pneumoniae [26]): 5.5 µg/mL (≈ 16.6 µM)
- MIC (Staphylococcus aureus [27]): 0.03 µg/mL (≈ 0.0905 µM)
- MIC (Pseudomonas aeruginosa [28]): 0.03 µg/mL (≈ 0.0905 µM)
- MIC (Enterococcus faecalis): 1 µg/mL (≈ 3.02 µM)
- MIC (Staphylococcus aureus [29]): ≥ 5 µg/mL
- MIC (Pseudomonas aeruginosa [30]): 0.0377 µg/mL (≈ 0.114 µM)
- MIC [31]: 0.03 µg/mL (≈ 0.0905 µM)
- MIC (Escherichia coli [32]): 4.7 µM (≈ 1.56 µg/mL)
- MIC (Bacillus cereus [33]): 1 µg/mL (≈ 3.02 µM)
- MIC (Bacillus cereus [34]): 6.25 µg/mL (≈ 18.9 µM)
- MIC (Enterococcus faecium [35]): > 128 µg/mL
- MIC (Staphylococcus aureus [36]): 5.5 µg/mL (≈ 16.6 µM)
- MIC (Staphylococcus aureus [37]): 1 µg/mL (≈ 3.02 µM)
- MIC (Pseudomonas aeruginosa [38]): 4.7 µM (≈ 1.56 µg/mL)
- MIC (Serratia marcescens): 0.03 µg/mL (≈ 0.0905 µM)
- MIC (Citrobacter freundii): ≤ 0.03 µg/mL
- MIC (Bacillus subtilis [39]): 4.7 µM (≈ 1.56 µg/mL)
- MIC (Klebsiella pneumoniae [40]): ≥ 5 µg/mL
- MIC (Proteus mirabilis [41]): 1 µg/mL (≈ 3.02 µM)
- MIC (Escherichia coli [42]): 0.0063 µg/mL (≈ 0.019 µM)
- MIC (Streptococcus pneumoniae): ≥ 5 µg/mL
- MIC (Enterococcus faecium [43]): > 128 µg/mL

Compound: CC(C)C[C@H](NC(=O)CNC(=O)C(C)(C)NC(=O)[C@@H](NC(=O)C(C)(C)NC(=O)[C@H](CCC(N)=O)NC(=O)[C@H](C)NC(=O)C(C)(C)NC(=O)[C@H](C)NC(=O)C(C)(C)NC(=O)[C@@H]1CCN(C(=O)C(C)(C)C(=O)c2ccc(C(F)(F)F)cc2)C1)C(C)C)C(=O)NC(C)(C)C(=O)N1CCC[C@H]1C(=O)N[C@H](C(=O)NC(C)(C)C(=O)NC(C)(C)C(=O)N[C@@H](CCC(N)=O)C(=O)N[C@@H](CCC(N)=O)C(=O)N[C@H](CO)Cc1ccccc1)C(C)C (X1-[βPro(3R)][Aib]A[Aib]AQ[Aib]V[Aib]GL[Aib]PV[Aib][Aib]QQ[Phe(ol)])
- MCC [44]: 2.9 µg/mL
